The values that follow come from US10526311B2 (ASTEX THERAPEUTICS LIMITED, priority 2015, dated 2020).

Assay [1] has as its system SN40R2 (MDM2 amplified, p53 mutated osteosarcoma). Put plainly: Protocol A: SN40R2 growth inhibition (SRB). As to conditions: 72 h.
Experimental: Protocol A: SJSA-1 and SN40R2 Assays
(§1) Following incubation with the SRB dye at room temperature for 30 min, the plates were washed with 1% acetic acid and left to dry. […] The GI50 was calculated by non-linear regression analysis of the data using Prism v4.0 statistical software.
Assay [2] deals with MDM2-p53 interaction (in vitro translated MDM2, biotinylated IP3 peptide) (Homo sapiens, UniProt Q00987). Put plainly: MDM2-p53 interaction 96-well plate binding assay (ELISA). For orientation: ELISA stands for enzyme-linked immunosorbent assay.
Experimental: The ELISA assay was performed in streptavidin coated plates which were preincubated with 200 μl per well of 1 μg ml^−1 biotinylated IP3 peptide. The plates were ready to use for MDM2 binding after washing the plate with PBS.
The unbound secondary antibody was removed by washing three times with TBS-Tween. The bound HRP activity was measured by enhanced chemiluminesence (ECL™, Amersham Biosciences) using the oxidation of the diacylhydrazide substrate, luminol, to generate a quantifiable light signal. The percentage of MDM2 inhibition at a given concentration is calculated as the [1−(RLU detected in the compound treated sample−RLU negative DMSO control)÷(RLU of DMSO positive and negative controls)]×100 or as the (RLU detected in the compound treated sample÷RLU of DMSO controls)×100. The IC50 was calculated using a plot of % MDM2 inhibition vs concentration and is the average of two or three independent experiments.
The subject of assay [3] is SJSA-1 (MDM2 amplified, p53 wild-type osteosarcoma). Put plainly: Protocol A: SJSA-1 growth inhibition (SRB).
Experimental: Protocol A: SJSA-1 and SN40R2 Assays
as §1
The next assay relates to SJSA-1. Kind of assay: Protocol B: SJSA-1 CellTiter-Glo cell viability. On the technique in general: In ATP-based viability assays light output follows the ATP content of the culture.
Where [4] appears, read: read-out: SN40R2 IC50 (μM) (Protocol A).
[5] abbreviates: Homo sapiens, SJSA-1, 72 h, read-out: SJSA-1 IC50 (μM) (Protocol A), SJSA-1, Protocol A (SRB), 72 hrs.
Setting [6] is: Homo sapiens, SJSA-1, 72 h, read-out: SJSA1 IC50 (μM) (Protocol B), SJSA-1, Protocol B (CellTiter-Glo), 72 hrs.
Setting [7] is: read-out: SJSA1 IC50 (μM) (Protocol B), SJSA-1, Protocol B (CellTiter-Glo), 72 hrs.
[8] abbreviates: Homo sapiens, SJSA-1, 72 h, read-out: SJSA-1 IC50 (Protocol A), SJSA-1 cells, SRB, 72 hrs.

What is called IC50 is the point on the concentration scale where inhibition reaches its midpoint.

Read-outs that look alike come from different tables or passages of the source.

MDM2-p53 interaction (in vitro translated MDM2, biotinylated IP3 peptide), sequence (Q00987 whole entry): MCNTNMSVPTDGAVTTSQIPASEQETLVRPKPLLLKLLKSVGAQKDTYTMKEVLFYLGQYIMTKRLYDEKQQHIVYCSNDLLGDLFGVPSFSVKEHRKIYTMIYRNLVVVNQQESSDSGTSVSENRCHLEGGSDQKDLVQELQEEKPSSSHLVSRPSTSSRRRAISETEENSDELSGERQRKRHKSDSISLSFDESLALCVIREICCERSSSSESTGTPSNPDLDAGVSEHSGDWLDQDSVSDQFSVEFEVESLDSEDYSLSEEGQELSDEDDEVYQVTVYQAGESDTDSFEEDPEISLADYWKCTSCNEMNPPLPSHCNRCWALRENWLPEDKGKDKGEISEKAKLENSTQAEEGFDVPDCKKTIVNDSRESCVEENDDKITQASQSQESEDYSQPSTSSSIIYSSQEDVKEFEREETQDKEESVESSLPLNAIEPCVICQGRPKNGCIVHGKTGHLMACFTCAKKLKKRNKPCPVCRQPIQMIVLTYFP

With `CO[C@]1(c2ccc(Cl)cc2)c2ccc(C(C)(O)CN3CCOCC3=O)cc2C(=O)N1Cc1ccc(Cl)cn1` (single isomer, unassigned) [Example 328], the IC50 in assay [1] (read-out: SN40R2 IC50 (Protocol A)) is 25 µM. In assay [2] (@ 0.10 μM, read-out: MDM2 % @ concentration), the inhibition at 0.1 µM worked out at 42%.

Consider `CO[C@]1(c2ccc(Cl)cc2)c2ccc(C(C)(O)CN3CC(=O)NC3=O)cc2C(=O)N1Cc1ccc(Cl)cn1` (single isomer, unassigned) [Example 329], for which the inhibition at 30 µM in assay [1] (read-out: SN40R2 (Protocol A) % at concentration) is 8%. In assay [2] (@ 0.30 μM), the “MDM2 % @ concentration” value came to 61% @ 0.30.

With `CCC(O)(c1cc(F)c2c(c1)C(=O)N(Cc1ccc(C#N)cn1)[C@@]2(O[C@H]1CCOC1)c1ccc(Cl)cc1)c1ccn(C)n1` (single isomer, unassigned) [Example 336], the results for the IC50 in assay [1] (setting [4]) and in assay [3] (setting [5]) were 42 µM and 0.1 µM, respectively.

Take `CCC(O)(c1cc(F)c2c(c1)C(=O)N(Cc1ccc(C#N)cn1)[C@@]2(OCCOC)c1ccc(Cl)cc1)c1cn(C)cn1` (single isomer, unassigned) [Example 430]: the IC50 in the assay on SJSA-1 (setting [6]) turned out to be 0.18 µM; in assay [3] (setting [5]) it was 0.11 µM.

In the case of `CCC(O)(c1cc(F)c2c(c1)C(=O)N(Cc1ncc(Cl)cc1O)[C@@]2(OCCO)c1ccc(Cl)cc1)c1cn(C)cn1` (single isomer, unassigned) [Example 443], the values for the IC50 (in assay [1] (setting [4]); in the assay with SJSA-1 (setting [6])) were 38 µM and 0.093 µM, respectively.

Regarding `CCC(O)(c1cc(F)c2c(c1)C(=O)N(Cc1ccc(C#N)cn1)[C@@]2(O[C@H]1CCOC1)c1ccc(Cl)cc1)C1(F)CCOCC1` (single isomer, unassigned) [Example 446], the results for the IC50 (in assay [1] (setting [4]); in the assay with SJSA-1 (setting [7])) were 29 µM and 0.023 µM, respectively. The “MDM2 % @ concentration” value in assay [2] (@ 0.0010 μM) was determined as 76% @ 0.0010.

On to `CCC(O)(c1cc(F)c2c(c1)C(=O)N(Cc1ncc(Cl)cn1)[C@@]2(O[C@H]1CCOC1)c1ccc(Cl)cc1)C1CCN(C)CC1` (single isomer, unassigned) [Example 449], for which the IC50 was determined as 18 µM in assay [1] (setting [4]), 0.012 µM in the assay with SJSA-1 (setting [6]) and 0.041 µM in assay [3] (setting [5]).

As for `CCC(O)(c1cc(F)c2c(c1)C(=O)N(Cc1ncc(C#N)cn1)[C@@]2(OCC1(C#N)CC1)c1ccc(Cl)cc1)c1cn(C)cn1` (single isomer, unassigned) [Example 462], the results for the half-maximal inhibitory concentration (IC50) (in the assay on SJSA-1 (setting [6]); in assay [3] (setting [5])) were 0.047 µM and 0.073 µM, respectively.

Take `CCC(O)(c1cc(F)c2c(c1)C(=O)N(Cc1ncc(Cl)cc1O)[C@@]2(O[C@H]1C[C@@H](O)C1)c1ccc(Cl)cc1)c1cn(C)cn1` (single isomer, unassigned) [Example 487]: the half-inhibitory concentration (IC50) in assay [1] (setting [4]) was determined as 27 µM; in the assay with SJSA-1 (setting [6]) it was 0.025 µM; in assay [3] (setting [5]), 0.12 µM.

As for `CCC(O)(c1cc(F)c2c(c1)C(=O)N(Cc1ccc(C#N)cn1)[C@@]2(OC[C@@H](C)O)c1ccc(Cl)cc1)C1(F)CCOCC1` (single isomer, unassigned) [Example 497], the 50% inhibitory concentration (IC50) is 45 µM in assay [1] (setting [4]), 0.046 µM in the assay on SJSA-1 (setting [6]) and 0.039 µM in assay [3] (setting [5]).

As for `CCC(O)(c1cc(F)c2c(c1)C(=O)N(Cc1ncc(Cl)cn1)[C@@]2(OCCO)c1ccc(Cl)cc1)[C@H]1CC[C@H](O)CC1` (single isomer, unassigned) [Example 517], the IC50 in assay [3] (setting [5]) is 0.019 µM.

Consider `CCC(O)(c1cc(F)c2c(c1)C(=O)N(Cc1ccc(C#N)cn1)[C@@]2(O[C@H]1C[C@@H](O)C1)c1ccc(Cl)cc1)[C@H]1CC[C@H](O)CC1` (single isomer, unassigned) [Example 518], for which the IC50 in the assay with SJSA-1 (setting [7]) is 0.065 µM; in assay [3] (setting [5]), 0.058 µM. Besides, the inhibition at 0.001 µM in assay [2] (@ 0.0010 μM, read-out: MDM2 % @ concentration) turned out to be 79%.

Regarding `CCC(O)(c1cc(F)c2c(c1)C(=O)N(Cc1ccc(C#N)cn1)[C@@]2(OC)c1ccc(Cl)cc1)[C@H]1CC[C@H](O)CC1` (single isomer, unassigned) [Example 521], the 50% inhibitory concentration (IC50) in assay [1] (setting [4]) came to 37 µM; in the assay with SJSA-1 (setting [6]), 0.033 µM; in assay [3] (setting [5]), 0.035 µM.

For the molecule `CN1CCC(C(C)(O)c2cc(F)c3c(c2)C(=O)N(Cc2ncc(Cl)cn2)[C@@]3(OCC2(CO)CC2)c2ccc(Cl)cc2)CC1` (single isomer, unassigned) [Example 554], the figures for the IC50 (in the assay with SJSA-1 (setting [6]); in assay [3] (setting [5])) were 0.07 µM and 0.21 µM, respectively.

On to `CCC(O)(c1cc(F)c2c(c1)C(=O)N(Cc1ncc(Cl)cn1)[C@@]2(OC)c1ccc(Cl)cc1)C1(F)CCN(C)CC1` (single isomer, unassigned) [Example 563], for which the IC50 is 15 µM in assay [1] (setting [4]) and 0.027 µM in the assay on SJSA-1 (setting [6]).

On to `CCC(O)(c1cc(F)c2c(c1)C(=O)N(Cc1ncc(Cl)cn1)[C@@]2(OCC1(C#N)CC1)c1ccc(Cl)cc1)C1(F)CCN(C)CC1` (single isomer, unassigned) [Example 564], for which the half-maximal inhibitory concentration (IC50) in assay [1] (setting [4]) stood at 16 µM; with SJSA-1 (setting [6]) it was 0.00038 µM.

On to `CCC(O)(c1cc(F)c2c(c1)C(=O)N(Cc1ncc(Cl)cn1)[C@@]2(O[C@H]1C[C@@H](O)C1)c1ccc(Cl)cc1)C1(F)CCN(C)CC1` (single isomer, unassigned) [Example 570], for which the figures for the IC50 (in the assay on SJSA-1 (setting [6]); in assay [3] (setting [5])) were 0.046 µM and 0.034 µM, respectively.

Regarding `CCC(O)(c1cc(F)c2c(c1)C(=O)N(Cc1ncc(Cl)cn1)[C@@]2(OC[C@@H](C)O)c1ccc(Cl)cc1)C1(F)CCN(C)CC1` (single isomer, unassigned) [Example 572], the results for the IC50 (in assay [1] (setting [4]); in the assay on SJSA-1 (setting [6])) were 18 µM and 0.022 µM, respectively.

For the molecule `CO[C@]1(c2ccc(Cl)cc2)c2c(F)cc(C(C)(C)O)cc2C(=O)N1Cc1ccc(Cl)cn1` [Example 2, (3R)-3-(4-Chlorophenyl)-2-[(5-chloropyridin-2-yl)methyl]-4-fluoro-6-(2-hydroxypropan-2-yl)-3-methoxy-2,3-dihydro-1H-isoindol-1-one], the IC50 is 3.4 µM in the assay on SJSA-1 (Homo sapiens, SJSA-1, 72 h, read-out: SJSA1 IC50 (Protocol B), SJSA-1 cells, CellTiter-Glo, 72 hrs) and 1.7 µM in assay [3] (setting [8]).

`CC(O)(CO)c1cc(F)c2c(c1)C(=O)N(Cc1ccc(Cl)cn1)[C@@]2(OCC1(CO)CC1)c1ccc(Cl)cc1` (stereo partly drawn) [Example 17, (3R)-3-(4-Chlorophenyl)-2-[(5-chloropyridin-2-yl)methyl]-6-(1,2-dihydroxypropan-2-yl)-4-fluoro-3-({1-[hydroxy(^2H2)methyl]cyclopropyl}(^2H2)methoxy)-2,3-dihydro-1H-isoindol-1-one]: the IC50 in assay [3] (read-out: SJSA-1 IC50 (Protocol A), SJSA-1 cells, SRB, 72 hrs) came out at 0.1 µM.

With `C[C@@H](CO[C@]1(c2ccc(Cl)cc2)c2c(F)cc(C(C)(C)O)cc2C(=O)N1Cc1ccc(Cl)cn1)C(N)=O` [Example 167, (2S)-3-{[(1R)-1-(4-Chlorophenyl)-2-[(5-chloropyridin-2-yl)methyl]-7-fluoro-5-(2-hydroxypropan-2-yl)-3-oxo-2,3-dihydro-1H-isoindol-1-yl]oxy}-2-methylpropanamide], the IC50 in assay [3] (setting [8]) stood at 0.64 µM.

With `CCC(O)(c1cc(F)c2c(c1)C(=O)N(Cc1ncc(Cl)cn1)[C@@]2(OCC1(C(N)=O)CC1)c1ccc(Cl)cc1)c1cn(C)cn1` (stereo partly drawn) [Example 486, 1-({[(1R)-1-(4-chlorophenyl)-2-[(5-chloropyrimidin-2-yl)methyl]-7-fluoro-5-[1-hydroxy-1-(1-methyl-1H-imidazol-4-yl)propyl]-3-oxo-2,3-dihydro-1H-isoindol-1-yl]oxy}methyl) cyclopropane-1-carboxamide], the IC50 in assay [3] (setting [5]) stood at 0.075 µM.

On to `CCC(O)(c1cc(F)c2c(c1)C(=O)N(Cc1ncc(C#N)cn1)[C@@]2(OCCO)c1ccc(Cl)cc1)[C@H]1CC[C@H](O)CC1` (stereo partly drawn) [Example 510, 2-{[(1R)-1-(4-chlorophenyl)-7-fluoro-5-{1-hydroxy-1-[trans-4-hydroxycyclohexyl]propyl}-1-(2-hydroxyethoxy)-3-oxo-2,3-dihydro-1H-isoindol-2-yl]methyl}pyrimidine-5-carbonitrile], for which the IC50 turned out to be 0.073 µM in the assay on SJSA-1 (setting [6]) and 0.084 µM in assay [3] (setting [5]).

`[2H]C([2H])(O)C1(C([2H])([2H])O[C@]2(c3ccc(Cl)cc3)c3c(F)cc(C(C)(C)O)cc3C(=O)N2Cc2ncc(C#N)cn2)CC1` [Example 513, 2-{[(1R)-1-(4-chlorophenyl)-7-fluoro-1-({1-[hydroxydideuteromethyl]cyclo-propyl}dideuteromethoxy)-5-(2-hydroxypropan-2-yl)-3-oxo-2,3-dihydro-1H-isoindol-2-yl]methyl}pyrimidine-5-carbonitrile]: the half-maximal inhibitory concentration (IC50) in the assay on SJSA-1 (setting [6]) is 0.38 µM; in assay [3] (setting [5]) it was 0.26 µM; in assay [2], 3.1 nM.

For `CC[C@@](O)(c1cc(F)c2c(c1)C(=O)N(Cc1ncc(Cl)cn1)[C@@]2(OC)c1ccc(Cl)cc1)C1CCN(C2COC2)CC1` [Example 551, (3R)-3-(4-chlorophenyl)-2-[(5-chloropyrimidin-2-yl)methyl]-4-fluoro-6-[(1S)-1-hydroxy-1-[1-(oxetan-3-yl)piperidin-4-yl]propyl]-3-methoxy-2,3-dihydro-1H-isoindol-1-one], the IC50 in assay [1] (setting [4]) is 36 µM; in assay [3] (setting [5]), 0.031 µM.

On to `CC[C@@](O)(c1cc(F)c2c(c1)C(=O)N(Cc1ncc(C#N)cn1)[C@@]2(O[C@H]1CCOC1)c1ccc(Cl)cc1)C1CCN(C)CC1` [Example 557, 2-{[(1R)-1-(4-chlorophenyl)-7-fluoro-5-[(1S)-1-hydroxy-1-(1-methylpiperidin-4-yl)propyl]-3-oxo-1-[(3S)-oxolan-3-yloxy]-2,3-dihydro-1H-isoindol-2-yl]methyl}pyrimidine-5-carbonitrile], for which the IC50 was determined as 0.037 µM in the assay on SJSA-1 (setting [6]) and 0.25 µM in assay [3] (setting [5]).
